Laboratory results as given in ChEMBL document CHEMBL1201862, “PubChem BioAssay data set” (2004).
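Grown in 96-well plates, cells were treated for 48 hours with each compound at five concentrations. Insufficient inhibition: endpoint recorded as highest concentration tested. Here, GI50 denotes the concentration required for 50% inhibition of growth.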 Active and inactive are the calls of the source. Rule as the data show it: active = GI50 up to about 1.1 µM and inactive = higher.

Columns and labels:
Assay in all cases: inhibition of tumour cell growth, NCI panel, 48 h
HL-60 = test system: HL-60
NCI-H23 = test system: NCI-H23
KM12 = test system: KM12
SK-MEL-2 = test system: SK-MEL-2
SK-MEL-28 = test system: SK-MEL-28
SF-268 = test system: SF-268
SNB-19 = test system: SNB-19
IGROV-1 = test system: IGROV-1
DMS-273 = test system: DMS-273
M19-MEL = test system: M19-MEL
NCI-H226 = test system: NCI-H226
KM-20L2 = test system: KM-20L2
HT-29 = test system: HT-29
A498 = test system: A498
OVCAR-4 = test system: OVCAR-4
TK-10 = test system: TK-10
HCT-15 = test system: HCT-15
SF-539 = test system: SF-539
UACC-62 = test system: UACC-62
HOP-62 = test system: HOP-62
SK-OV-3 = test system: SK-OV-3
A549 = test system: A549
RXF 631 = test system: RXF 631
LOX IMVI = test system: LOX IMVI
SW-620 = test system: SW-620
SN12C = test system: SN12C
NCI-H460 = test system: NCI-H460
ACHN = test system: ACHN
U-251 = test system: U-251
CCRF-CEM = test system: CCRF-CEM
SF-295 = test system: SF-295
786-0 = test system: 786-0
Malme-3M = test system: Malme-3M
RXF 393 = test system: RXF 393
DLD-1 = test system: DLD-1
COLO 205 = test system: COLO 205
M14 = test system: M14
UACC-257 = test system: UACC-257
DMS-114 = test system: DMS-114
EKVX = test system: EKVX
OVCAR-5 = test system: OVCAR-5
UO-31 = test system: UO-31
CAKI-1 = test system: CAKI-1
OVCAR-3 = test system: OVCAR-3
HCC 2998 = test system: HCC 2998
LXFL 529 = test system: LXFL 529
HOP-18 = test system: HOP-18
SNB-75 = test system: SNB-75
MOLT-4 = test system: MOLT-4
RPMI-8226 = test system: RPMI-8226
OVCAR-8 = test system: OVCAR-8
SK-MEL-5 = test system: SK-MEL-5
NCI-H522 = test system: NCI-H522
K562 = test system: K562

Measured: GI50

Cc1cc(Cl)ccc1NC(=O)CC1SC(N)=NC1=O (centres undefined)
inactive: HL-60 > 100 µM | NCI-H23 > 100 µM | KM12 > 100 µM | SK-MEL-2 > 100 µM | SK-MEL-28 > 100 µM | SF-268 > 100 µM | SNB-19 > 100 µM | IGROV-1 > 100 µM | DMS-273 > 100 µM | M19-MEL > 100 µM | NCI-H226 > 100 µM | KM-20L2 > 100 µM | HT-29 > 100 µM | A498 17.7 µM | OVCAR-4 > 100 µM | TK-10 > 100 µM | SF-539 > 100 µM | UACC-62 > 100 µM | HOP-62 > 100 µM | SK-OV-3 > 100 µM | A549 > 100 µM | RXF 631 > 100 µM | LOX IMVI > 100 µM | SW-620 > 100 µM | SN12C > 100 µM | NCI-H460 > 100 µM | ACHN > 100 µM | U-251 > 100 µM | CCRF-CEM 66.4 µM | SF-295 > 100 µM | 786-0 > 100 µM | Malme-3M > 100 µM | RXF 393 > 100 µM | DLD-1 > 100 µM | COLO 205 > 100 µM | M14 > 100 µM | UACC-257 > 100 µM | DMS-114 > 100 µM | EKVX > 100 µM | OVCAR-5 > 100 µM | UO-31 > 100 µM | CAKI-1 > 100 µM | OVCAR-3 > 100 µM | HCC 2998 > 100 µM | LXFL 529 > 100 µM | HOP-18 > 100 µM | SNB-75 > 100 µM | MOLT-4 > 100 µM | RPMI-8226 > 100 µM | OVCAR-8 > 100 µM | SK-MEL-5 > 100 µM | NCI-H522 > 100 µM | K562 > 100 µM
> 100 µM: HCT-15
